Test results from the Deep4Chem optical property database.
“And” between values parts separate entries of the source, which are not always exact repeats. Identical values can stand only once.

Assay: photoluminescence quantum yield (fraction); solvent given as SMILES

For `F[B-]1(F)n2c(NCc3ccccc3)ccc2C(c2c(Cl)cccc2Cl)=C2C=CC(NCc3ccccc3)=[N+]21`, the photoluminescence quantum yield (in CC#N) was 0.42, the photoluminescence quantum yield (in CCCCCC) was 0.55 and the photoluminescence quantum yield (in CCOC(C)=O) was 0.44. For the same compound, the photoluminescence quantum yield (in CO) was 0.5 and the photoluminescence quantum yield (in ClCCl) was 0.52.
For `CN(C)c1ccc2c(c1)COc1c-2oc2ccccc2c1=O`, the photoluminescence quantum yield (in C1CCCCC1) was 0.5, the photoluminescence quantum yield (in C1CCOC1) was 0.91 and the photoluminescence quantum yield (in CC#N) was 0.86. For the same compound, the photoluminescence quantum yield (in CCOC(C)=O) was 0.95, the photoluminescence quantum yield (in CCOCC) was 1 and the photoluminescence quantum yield (in CO) was 0.68. The photoluminescence quantum yield (in Cc1ccccc1) was 1.
`COc1ccc(C#Cc2ccccc2C#Cc2ccc(OC)cc2)cc1` showed a photoluminescence quantum yield (in CC#N) of 0.83.
For `Cc1cc(C)c(B(c2cc(-c3ccc(C(F)(F)F)cc3)sc2-c2sc(-c3ccc(C(F)(F)F)cc3)cc2P(=O)(c2ccccc2)c2ccccc2)c2c(C)cc(C)cc2C)c(C)c1`, the photoluminescence quantum yield (in CO) was 0.41.
Work on `Cc1ccc(-c2ccc(-c3ccc(C)cc3)c(/C(=C(/c3ccccc3)c3cc(-c4ccc(C)cc4)ccc3-c3ccc(C)cc3)c3ccccc3)c2)cc1` yielded a photoluminescence quantum yield (in C1CCOC1) of 0.32.
Compound `Cc1cc(C)c(C2=C(c3c(C)sc(-c4ccc(-c5nc(-c6ccccc6)c(-c6ccccc6)[nH]5)cc4)c3C)C(F)(F)C(F)(F)C2(F)F)s1` has a photoluminescence quantum yield (in C1CCOC1) of 0.091.
`CCCCCCN(CCCCCC)c1ccc(C#Cc2ccc(C#N)cc2)cc1` showed a photoluminescence quantum yield (in CC#N) of 0.005, a photoluminescence quantum yield (in CO) of 0.015 and a photoluminescence quantum yield (in ClCCl) of 0.37.
With `O=C([O-])c1ccccc1-c1c2ccc(=O)cc-2oc2cc([O-])ccc12` the photoluminescence quantum yield (in O) was 0.95.
Work on `COc1c2ccccc2c(OC)c2c1c1c(C)ccc(OC)c1n2C` yielded a photoluminescence quantum yield (in C1CCCCC1) of 0.23, a photoluminescence quantum yield (in CC#N) of 0.26 and a photoluminescence quantum yield (in CO) of 0.25. The photoluminescence quantum yield (in ClCCl) was 0.31.
Compound `c1ccc(-c2nc(-c3ccccc3)nc(-c3cc(-n4c5ccccc5c5ncccc54)c(-n4c5ccccc5c5ccccc54)c(-n4c5ccccc5c5ncccc54)c3)n2)cc1` has a photoluminescence quantum yield (in O=P(c1ccccc1)(c1ccccc1)c1ccccc1Oc1ccccc1P(=O)(c1ccccc1)c1ccccc1) of 0.85.
In the case of `C=Cc1ccc(-c2ccc(-c3nnc(-c4ccc(-c5nnc(-c6ccc(-c7ccc(C=C)cc7)s6)o5)cc4)o3)s2)cc1`, the photoluminescence quantum yield (in ClC(Cl)Cl) is reported as 0.62.
For `COc1ccc(N(c2ccc(OC)cc2)c2ccc(-c3ccc(-c4ccc(-c5ccc(-c6ccc(N(c7ccc(OC)cc7)c7ccc(OC)cc7)cc6)s5)c5nsnc45)s3)cc2)cc1`, the photoluminescence quantum yield (in ClC(Cl)Cl) was 0.18.
In the case of `CCOC(=O)c1ccc2c(c1)sc1c3ccc(C(=O)OCC)cc3sc21`, the photoluminescence quantum yield (in CCCO) is reported as 0.083.
With `N#Cc1c(-n2c3ccccc3c3ccccc32)c(C#N)c(-n2c3ccccc3c3ccccc32)c(-n2c3ccccc3c3ccccc32)c1-n1c2ccccc2c2ccccc21` the photoluminescence quantum yield (in Cc1ccccc1) was 0.938 and 0.88 and the photoluminescence quantum yield (in c1ccc2c(c1)c1ccccc1n2-c1ccc(-c2ccc(-n3c4ccccc4c4ccccc43)cc2)cc1) was 0.83.
With `O=C1OC(=O)C2=C1[Se][C@]13C2=C[C@H](c2ccccc21)c1ccccc13` the photoluminescence quantum yield (in ClCCl) was 0.62.
Work on `CCOC(=O)C1=C(C(=O)OCC)C2(c3ccccc3-c3ccccc32)[C@@H](c2ccccc2)C=C2c3cc(OC)c(OC)cc3CCN21` yielded a photoluminescence quantum yield (in ClCCl) of 0.00154.
`c1ccc(-c2nnc(-c3ccc(-n4c5ccccc5c5ccccc54)cc3)o2)cc1` gave a photoluminescence quantum yield (in Cc1ccccc1) of 0.57.
Compound `CCOC(=O)CSc1nc(C)c(C)c(C#N)c1C#N` has a photoluminescence quantum yield (in c1ccccc1) of 0.035.
In the case of `COc1ccc(/C=C(\C)c2nc3ccccc3s2)cc1`, the photoluminescence quantum yield (in C1CCCCC1) is reported as 0.001.
`[O-][n+]1c(/C=C/c2ccccc2)nc(Nc2ccccc2)c2c1CCCC2` gave a photoluminescence quantum yield (in ClCCl) of 0.16.
Work on `CCCCCC(=O)c1cccc2sc3c(c12)P(=O)(c1ccccc1)c1ccccc1-3` (stereo not drawn) yielded a photoluminescence quantum yield (in ClCCl) of 0.13.
`c1ccc(C2=C(c3ccccc3)c3cccc4c3c(cc3nc5ccccc5nc34)O2)cc1` showed a photoluminescence quantum yield (in ClCCl) of 0.54.
For `Cc1cc(=O)c2c(ccc3ccc(O)cc32)o1`, the photoluminescence quantum yield (in CC#N) was 0.02.
Work on `COCCC1=Cc2nc1ccc1[nH]c(cc1CCOC)c1nc(c(NC(=O)CCCC(=O)O)cc3[nH]c2cc3CCOC)C(CCOC)=C1` yielded a photoluminescence quantum yield (in Cc1ccccc1) of 0.15.
`CCC1(CC)c2cc(Br)ccc2-c2c1c1c(c3c2C(CC)(CC)c2cc(-c4cccs4)ccc2-3)C(CC)(CC)c2cc(Br)ccc2-1` gave a photoluminescence quantum yield (in C1CCOC1) of 0.32.
Compound `CC1=CC(C)=[N+]2C1=C(c1ccc(C)cc1)c1c(C)cc(/C=C/c3ccc4ccc5cccc6ccc3c4c56)n1[B-]2(F)F` has a photoluminescence quantum yield (in CC1CCCO1) of 0.64.
`CCCCCCCCC1(CCCCCCCC)c2cc(-c3ccc(C=C4C(=O)c5ccccc5C4=O)cc3)ccc2-c2ccc(-c3ccc(C=C4C(=O)c5ccccc5C4=O)cc3)cc21` gave a photoluminescence quantum yield (in C1CCOC1) of 0.048, a photoluminescence quantum yield (in CC(C)=O) of 0.116 and a photoluminescence quantum yield (in CCCCCC) of 0.007. For the same compound, the photoluminescence quantum yield (in CS(C)=O) was 0.245, the photoluminescence quantum yield (in Cc1ccccc1) was 0.011 and the photoluminescence quantum yield (in ClC(Cl)Cl) was 0.014.
`CCN1c2ccc(/C=N/Nc3ccccn3)cc2Sc2cc(-c3ccccc3)ccc21` gave a photoluminescence quantum yield (in C1CCOC1) of 0.26, a photoluminescence quantum yield (in CS(C)=O) of 0.37 and a photoluminescence quantum yield (in Cc1ccccc1) of 0.17. It also gave a photoluminescence quantum yield (in ClCCl) of 0.27.
`CN(C)c1ccc(-c2nc(-c3ccccc3)c3ccccn23)cc1` gave a photoluminescence quantum yield (in ClCCl) of 0.12.
With `Fc1ccc(C#Cc2cc(C#Cc3ccc(F)cc3)c(C#Cc3ccc(F)cc3)c(C#Cc3ccc(F)cc3)c2C#Cc2ccc(F)cc2)cc1` the photoluminescence quantum yield (in ClCCl) was 0.43.
In the case of `N#C/C(=C\c1ccc(C=C(c2ccccc2)c2ccccc2)cc1)c1ccc([N+](=O)[O-])cc1`, the photoluminescence quantum yield (in C1CCOC1) is reported as 0.046.
In the case of `O=C1[C@@H]2[C@H](C(=O)N1c1cccc3cc4ccccc4cc13)[C@@H]1C=C[C@H]2C1`, the photoluminescence quantum yield (in ClC(Cl)Cl) is reported as 0.26.
For `CC(=O)Nc1ccc(C2=C/C(=C\c3ccc(C#N)cc3)C(=O)N2CC(C)C)cc1`, the photoluminescence quantum yield (in C1COCCO1) was 0.218.
Work on `C[Si](C)(C)c1ccc([Si](C)(C)C)c2ccccc12` yielded a photoluminescence quantum yield (in C1CCCCC1) of 0.33.
For `Cc1ccccc1-c1c2ccc(=[N+]3CCCC3)cc-2oc2cc(N3CCCC3)ccc12`, the photoluminescence quantum yield (in CCO) was 0.95 and the photoluminescence quantum yield (in ClCCl) was 1.
Work on `COc1ccccc1` yielded a photoluminescence quantum yield (in C1CCCCC1) of 0.36.
With `CN(C)c1ccc(-c2cc(-c3ccccc3)nn2C)cc1` the photoluminescence quantum yield (in ClCCl) was 0.06.
`COC(=O)c1ccc(/C=C2\N=C(c3ccccc3)NC2=O)cc1` gave a photoluminescence quantum yield (in C1COCCO1) of 0.159.
`COc1ccccc1C1=[N+]2C(=C(c3ccccc3)c3c4c(c(-c5ccccc5OC)n3[B-]2(F)F)C2CCC4CC2)C2=C1C1CCC2CC1` gave a photoluminescence quantum yield (in ClCCl) of 0.77.
`C#CCNC1=C2C(C)=CC(C)=[N+]2[B-](F)(F)n2c(C)cc(C)c21` showed a photoluminescence quantum yield (in C1CCCCC1) of 0.23, a photoluminescence quantum yield (in CC(C)=O) of 0.063 and a photoluminescence quantum yield (in CCOC(C)=O) of 0.084. For the same compound, the photoluminescence quantum yield (in CO) was 0.051 and the photoluminescence quantum yield (in OCC(F)(F)F) was 0.074.
In the case of `COCCC1=Cc2nc1ccc1[nH]c(cc1CCOC)c1nc(c(OC(C)=O)cc3[nH]c2cc3CCOC)C(CCOC)=C1`, the photoluminescence quantum yield (in Cc1ccccc1) is reported as 0.27.
In the case of `N#C/C(=C\c1ccc(C=C(c2ccccc2)c2ccccc2)cc1)c1ccccc1`, the photoluminescence quantum yield (in C1CCOC1) is reported as 0.045.
For `CC(C)(C)c1ccc(-c2c(-c3ccc(-n4c5ccccc5c5ccccc54)cc3)cc(-c3ccc(-n4c5ccccc5c5ccccc54)cc3)c(-c3ccc(C(C)(C)C)cc3)c2-c2ccc(C(C)(C)C)cc2)cc1`, the photoluminescence quantum yield (in C1CCOC1) was 0.343.
With `CC1=[N+]2C(=C(c3ccc(N(C)C)cc3)c3ccc(C)n3[B-]2(F)F)C=C1` the photoluminescence quantum yield (in C1CCCCC1) was 0.37, the photoluminescence quantum yield (in CC#N) was 0.008 and the photoluminescence quantum yield (in CC(=O)C(C)(C)C) was 0.024. For the same compound, the photoluminescence quantum yield (in CC(C)=O) was 0.006, the photoluminescence quantum yield (in CCCCCC) was 0.376 and the photoluminescence quantum yield (in CO) was 0.03. It also gave a photoluminescence quantum yield (in Cc1ccccc1) of 0.15 and a photoluminescence quantum yield (in ClC(Cl)Cl) of 0.058.
In the case of `N#Cc1c(-n2c3ccccc3c3ccccc32)c(-n2c3ccccc3c3ccccc32)cc(-n2c3ccccc3c3ccccc32)c1-n1c2ccccc2c2ccccc21`, the photoluminescence quantum yield (in Cc1ccccc1) is reported as 0.49.
For `CCCCC(CC)Cn1c2cc(C#N)ccc2c2ccc(C#N)cc21` (stereo not drawn), the photoluminescence quantum yield (in ClCCl) was 0.3.
Compound `COc1ccc2cc(-c3cc4ccc(OC)cc4oc3=O)oc2c1` has a photoluminescence quantum yield (in CS(C)=O) of 0.75.
`CC(C)Oc1ccc(C#Cc2ccc3ccc(=O)oc3c2)cc1` showed a photoluminescence quantum yield (in CC#N) of 0.034.
In the case of `COc1nc(Nc2cc3ccc4cccc5ccc(c2)c3c45)nc(OC)n1`, the photoluminescence quantum yield (in CC#N) is reported as 0.13, the photoluminescence quantum yield (in CCCCOCCCC) is reported as 0.15 and the photoluminescence quantum yield (in CO) is reported as 0.13.
Compound `Cc1ccc(C2=C3C=C(I)C=[N+]3[B-](F)(F)n3cc(I)cc32)cc1` has a photoluminescence quantum yield (in C1CCCCC1) of 0.012, a photoluminescence quantum yield (in CC#N) of 0.005 and a photoluminescence quantum yield (in CCO) of 0.006. It also gave a photoluminescence quantum yield (in CCOC(C)=O) of 0.007, a photoluminescence quantum yield (in CO) of 0.005 and a photoluminescence quantum yield (in OCC(F)(F)F) of 0.006.
Compound `COc1cc(OC)cc(C2=C3C(C)=C(I)C(C)=[N+]3[B-](F)(F)n3c(/C=C/c4ccsc4)c(I)c(C)c32)c1` has a photoluminescence quantum yield (in C1CCOC1) of 0.3, a photoluminescence quantum yield (in CS(C)=O) of 0.15 and a photoluminescence quantum yield (in ClCCl) of 0.4.
Compound `CC(=O)c1c2c(c(C(C)=O)c3c1OC(CC(=O)O)O3)OCO2` has a photoluminescence quantum yield (in CC#N) of 0.43.
With `NNC(=O)NNN1C(=O)c2cc(S(=O)(=O)[O-])cc3c(N)c(S(=O)(=O)[O-])cc(c23)C1=O` the photoluminescence quantum yield (in C1COCCO1) was 0.06, the photoluminescence quantum yield (in CC#N) was 0.49 and the photoluminescence quantum yield (in CC(C)=O) was 0.29. For the same compound, the photoluminescence quantum yield (in CC(C)O) was 0.62, the photoluminescence quantum yield (in CCCCCCCCO) was 0.75 and the photoluminescence quantum yield (in CCO) was 0.54. The photoluminescence quantum yield (in CCOC(C)=O) was 0.03, the photoluminescence quantum yield (in CO) was 0.25 and the photoluminescence quantum yield (in CS(C)=O) was 0.59. The photoluminescence quantum yield (in O) was 0.21, the photoluminescence quantum yield (in OCCO) was 0.5 and the photoluminescence quantum yield (in c1ccncc1) was 0.26.
With `CC/[NH+]=c1\cc2oc3cc(NCCOC(=O)C(NC(=O)OC(C)(C)C)C(C)C)c4ccccc4c3nc-2cc1C` (stereo not drawn) the photoluminescence quantum yield (in CCO) was 0.32 and the photoluminescence quantum yield (in O) was 0.26.
In the case of `CCN(CC)c1ccc(C(=C(c2ccccc2)c2ccc(B(c3c(C)cc(C)cc3C)c3c(C)cc(C)cc3C)cc2)c2ccc(N(CC)CC)cc2)cc1`, the photoluminescence quantum yield (in C1CCOC1) is reported as 0.19.
`CC1(C)c2ccccc2N(c2ccc(C(=C(C#N)C#N)c3ccc(N4c5ccccc5C(C)(C)c5ccccc54)cc3)cc2)c2ccccc21` showed a photoluminescence quantum yield (in Cc1ccccc1) of 0.0171.
Compound `N#CC(C#N)=Cc1ccc(-c2ccc(-c3nc4ccccc4s3)c(O)c2)s1` has a photoluminescence quantum yield (in CCO) of 0.0111, a photoluminescence quantum yield (in ClCCl) of 0.0197 and a photoluminescence quantum yield (in O) of 0.01.
Compound `CCCCCCC1(CCCCCC)c2ccccc2-c2ccc(-c3ccc(-c4cc(-c5ccccn5)nc(-c5ccccn5)c4)cc3)cc21` has a photoluminescence quantum yield (in ClCCl) of 0.92.
Compound `CCCCN1C(=O)c2cccc3cccc(c23)C1=O` has a photoluminescence quantum yield (in Cc1ccccc1) of 0.04.
